Patent US6737383B1, “Herbicidal oxadiazolidines” (priority 1999, dated 2004)

Columns and labels:
[1] = tested on: wild oat; assay: Test B pre/postemergence wild oat; format: in vivo, Avena fatua
Method in brief: (§1)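 Response is a visual 0-to-10 score relative to untreated plants, where 0 means no effect and 10 means complete control, taken twelve to sixteen days after application. Treatments went onto soil at planting and onto foliage of 1- to 4-leaf plants, using a surfactant-containing non-phytotoxic solvent.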

[2] = tested on: corn; assay: Test B pre/postemergence corn; format: in vivo, Zea mays
Method in brief: as §1

[3] = tested on: sugar beet; assay: Test B pre/postemergence sugar beet; format: in vivo, Beta vulgaris
Method in brief: as §1

[4] = tested on: smallflower flatsedge; assay: Test B flood test smallflower flatsedge; format: in vivo, Cyperus difformis
Method in brief: (§2)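 Each value is a visual injury score relative to controls, with 10 meaning complete control and 0 no effect. Evaluation took place twelve to sixteen days after the 2-leaf-stage plants were treated and kept in the greenhouse.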

[5] = tested on: bamyardgrass; assay: Test B flood test barnyardgrass; format: in vivo, Echinochloa crus-galli
Method in brief: as §2

[6] = tested on: morningglory; assay: Test B pre/postemergence morningglory; format: in vivo, Ipomoea hederacea
Method in brief: as §1

[7] = tested on: rice; assay: Test B flood test rice; format: in vivo, Oryza sativa
Method in brief: as §2

[8] = tested on: velvetleaf; assay: Test B pre/postemergence velvetleaf; format: in vivo, Abutilon theophrasti
Method in brief: as §1

[9] = tested on: blackgrass; assay: Test B pre/postemergence blackgrass; format: in vivo, Alopecurus myosuroides
Method in brief: as §1

[10] = tested on: rape; assay: Test B pre/postemergence rape; format: in vivo, Brassica napus
Method in brief: as §1

[11] = tested on: pigweed; assay: Test B pre/postemergence pigweed; format: in vivo, Amaranthus retroflexus
Method in brief: as §1

[12] = tested on: crabgrass; assay: Test B pre/postemergence crabgrass; format: in vivo, Digitaria sanguinalis
Method in brief: as §1

[13] = tested on: giant foxtail; assay: Test B pre/postemergence giant foxtail; format: in vivo, Setaria faberii
Method in brief: as §1

[14] = tested on: cocklebur; assay: Test B pre/postemergence cocklebur; format: in vivo, Xanthium strumarium
Method in brief: as §1

[15] = tested on: surinam grass; assay: Test B pre/postemergence surinam grass; format: in vivo, Brachiaria decumbens
Method in brief: as §1

[16] = tested on: bedstraw; assay: Test B pre/postemergence bedstraw; format: in vivo, Galium aparine
Method in brief: as §1

[17] = Preemergence, Rate 62 g/ha, scale of 0 to 10 where 0 is no effect and 10 is complete control
[18] = Preemergence, Rate 250 g/ha, scale of 0 to 10 where 0 is no effect and 10 is complete control
[19] = Preemergence, Rate 500 g/ha, scale of 0 to 10 where 0 is no effect and 10 is complete control
[20] = Rate 62 g/ha, Postemergence, scale of 0 to 10 where 0 is no effect and 10 is complete control
[21] = Rate 125 g/ha, Postemergence, scale 0 to 10
[22] = Rate 125 g/ha, Preemergence, scale of 0 to 10 where 0 is no effect and 10 is complete control
[23] = Rate 500 g/ha, Postemergence, scale 0 to 10, 0 no effect, 10 complete control
[24] = Rate 62 g/ha, headed Pre-emergence (flood test species), scale 0 to 10 (0 no effect, 10 complete control)
[25] = Rate 125 g/ha, Pre-emergence, flood test species, scale 0 to 10 where 0 is no effect and 10 is complete control
[26] = Rate 250 g/ha, Pre-emergence, flood-test species, scale 0 to 10, 0 is no effect, 10 is complete control
[27] = Rate 500 g/ha, Pre-emergence, flood test species, scale 0 to 10 (0 no effect, 10 complete control)

## CCN(C(=O)n1oc(=O)n(C)c1=O)C1CCCCC1 [Compound 228]
[1]; [17]
  Wild oats plant response rating: 0
[1]; [18]
  Wild oats plant response rating: 0
[1]; [19]
  Plant response rating, Wild oats: 0
[1]; [20]
  Wild oats plant response rating: 0
[1]; [21]
  Wild oats plant response rating: 0
[1]; [22]
  Wild oats plant response rating: 0
[1]; Rate 250 g/ha, Postemergence
  Plant response rating (0 to 10; 0 is no effect, 10 is complete control), Wild oats: 0
[1]; [23]
  Wild oats plant response rating: 0
[2]; [17]
  Corn plant response rating: 0
[2]; [18]
  Corn plant response rating: 0
[2]; [19]
  Plant response rating, Corn: 0
[2]; [20]
  Corn plant response rating: 0
[2]; [21]
  Corn plant response rating: 0
[2]; [22]
  Corn plant response rating: 0
[2]; Rate 250 g/ha, Postemergence
  Plant response rating (0 to 10; 0 is no effect, 10 is complete control), Corn: 0
[2]; [23]
  Corn plant response rating: 2
[3]; [17]
  Sugarbeets plant response rating: 0
[3]; [18]
  Sugarbeets plant response rating: 0
[3]; [19]
  Plant response rating, Sugarbeets: 0
[3]; [20]
  Sugarbeets plant response rating: 0
[3]; [21]
  Sugarbeets plant response rating: 0
[3]; [22]
  Sugarbeets plant response rating: 0
[3]; Rate 250 g/ha, Postemergence
  Plant response rating (0 to 10; 0 is no effect, 10 is complete control), Sugarbeets: 3
[3]; [23]
  Sugarbeets plant response rating: 4
[4]; [24]
  S. Flatsedge plant response rating: 0
[4]; [25]
  S. Flatsedge plant response rating: 0
[4]; [26]
  S. Flatsedge plant response rating: 0
[4]; [27]
  S. Flatsedge plant response rating: 0
[5]; [24]
  Barnyardgrass plant response rating: 0
[5]; [25]
  Barnyardgrass plant response rating: 0
[5]; [26]
  Barnyardgrass plant response rating: 0
[5]; [27]
  Barnyardgrass plant response rating: 0
[6]; [17]
  Morningglory plant response rating: 0
[6]; [18]
  Morningglory plant response rating: 0
[6]; [19]
  Plant response rating, Morningglory: 0
[6]; [20]
  Morningglory plant response rating: 2
[6]; [21]
  Morningglory plant response rating: 3
[6]; [22]
  Morningglory plant response rating: 0
[6]; Rate 250 g/ha, Postemergence
  Plant response rating (0 to 10; 0 is no effect, 10 is complete control), Morningglory: 3
[6]; [23]
  Morningglory plant response rating: 9
[7]; [24]
  Rice plant response rating: 0
[7]; [25]
  Rice plant response rating: 0
[7]; [26]
  Rice plant response rating: 0
[7]; [27]
  Rice plant response rating: 0
[8]; [17]
  Velvetleaf plant response rating: 0
[8]; [18]
  Velvetleaf plant response rating: 0
[8]; [19]
  Plant response rating, Velvetleaf: 0
[8]; [20]
  Velvetleaf plant response rating: 0
[8]; [21]
  Velvetleaf plant response rating: 0
[8]; [22]
  Velvetleaf plant response rating: 0
[8]; Rate 250 g/ha, Postemergence
  Plant response rating (0 to 10; 0 is no effect, 10 is complete control), Velvetleaf: 0
[8]; [23]
  Velvetleaf plant response rating: 0
[9]; [17]
  Blackgrass plant response rating: 0
[9]; [18]
  Blackgrass plant response rating: 0
[9]; [19]
  Plant response rating, Blackgrass: 0
[9]; [20]
  Blackgrass plant response rating: 0
[9]; [21]
  Blackgrass plant response rating: 0
[9]; [22]
  Blackgrass plant response rating: 0
[9]; Rate 250 g/ha, Postemergence
  Plant response rating (0 to 10; 0 is no effect, 10 is complete control), Blackgrass: 0
[9]; [23]
  Blackgrass plant response rating: 0
[10]; [17]
  Rape plant response rating: 0
[10]; [18]
  Rape plant response rating: 0
[10]; [19]
  Plant response rating, Rape: 0
[10]; [20]
  Rape plant response rating: 0
[10]; [21]
  Rape plant response rating: 0
[10]; [22]
  Rape plant response rating: 0
[10]; Rate 250 g/ha, Postemergence
  Plant response rating (0 to 10; 0 is no effect, 10 is complete control), Rape: 0
[10]; [23]
  Rape plant response rating: 0
[11]; [17]
  Redroot pigweed plant response rating: 0
[11]; [18]
  Redroot pigweed plant response rating: 0
[11]; [19]
  Plant response rating, Redroot pigweed: 0
[11]; [20]
  Redroot pigweed plant response rating: 0
[11]; [21]
  Redroot pigweed plant response rating: 0
[11]; [22]
  Redroot pigweed plant response rating: 0
[11]; Rate 250 g/ha, Postemergence
  Plant response rating (0 to 10; 0 is no effect, 10 is complete control), Redroot pigweed: 0
[11]; [23]
  Redroot pigweed plant response rating: 2
[12]; [17]
  Crabgrass plant response rating: 0
[12]; [18]
  Crabgrass plant response rating: 1
[12]; [19]
  Plant response rating, Crabgrass: 2
[12]; [20]
  Crabgrass plant response rating: 0
[12]; [21]
  Crabgrass plant response rating: 0
[12]; [22]
  Crabgrass plant response rating: 0
[12]; Rate 250 g/ha, Postemergence
  Plant response rating (0 to 10; 0 is no effect, 10 is complete control), Crabgrass: 0
[12]; [23]
  Crabgrass plant response rating: 0
[13]; [18]
  Giant foxtail plant response rating: 9
[13]; [19]
  Plant response rating, Giant foxtail: 9
[13]; [20]
  Giant foxtail plant response rating: 0
[13]; [21]
  Giant foxtail plant response rating: 0
[13]; [22]
  Giant foxtail plant response rating: 6
[13]; Rate 250 g/ha, Postemergence
  Plant response rating (0 to 10; 0 is no effect, 10 is complete control), Giant foxtail: 0
[13]; [23]
  Giant foxtail plant response rating: 0
[14]; [17]
  Cocklebur plant response rating: 0
[14]; [18]
  Cocklebur plant response rating: 0
[14]; [19]
  Plant response rating, Cocklebur: 0
[14]; [20]
  Cocklebur plant response rating: 0
[14]; [21]
  Cocklebur plant response rating: 0
[14]; [22]
  Cocklebur plant response rating: 0
[14]; Rate 250 g/ha, Postemergence
  Plant response rating (0 to 10; 0 is no effect, 10 is complete control), Cocklebur: 0
[14]; [23]
  Cocklebur plant response rating: 0
[15]; [17]
  B. signalgrass plant response rating: 0
[15]; Preemergence, Rate 250 g/ha, scale 0 to 10, 0 is no effect, 10 is complete control
  B. signalgrass plant response rating: 0
[15]; [19]
  Plant response rating, B. signalgrass: 0
[15]; [20]
  B. signalgrass plant response rating: 0
[15]; Rate 125 g/ha, Postemergence, scale 0 (no effect) to 10 (complete control)
  B. signalgrass plant response rating: 0
[15]; [22]
  B. signalgrass plant response rating: 0
[15]; Rate 250 g/ha, Postemergence
  Plant response rating (0 to 10; 0 is no effect, 10 is complete control), B. signalgrass: 0
[15]; [23]
  B. signalgrass plant response rating: 0
[16]; [17]
  Bedstraw plant response rating: 0
[16]; [18]
  Bedstraw plant response rating: 0
[16]; [19]
  Plant response rating, Bedstraw: 0
[16]; [20]
  Bedstraw plant response rating: 0
[16]; [21]
  Bedstraw plant response rating: 0
[16]; [22]
  Bedstraw plant response rating: 0
[16]; Rate 250 g/ha, Postemergence
  Plant response rating (0 to 10; 0 is no effect, 10 is complete control), Bedstraw: 0
[16]; [23]
  Bedstraw plant response rating: 2
